The source of these data is the METLIN SMRT retention time set (Domingo-Almenara et al. 2019).

The structures appear in SMILES notation.

The data set is described as follows: gradient 5% acetonitrile 3 min, to 50% in 2 min, to 85% in 15 min, held 3 min, 100 µL/min. The settings on record: column: Zorbax Extend-C18 2.1 x 50 mm; eluents: water / acetonitrile, 0.1% formic acid. In short, it runs like this:
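Data were gathered over 3 months by HPLC coupled to a quadrupole time-of-flight mass spectrometer, operated in positive and negative ionization mode. Mixtures of ~100 pure standards ran on a Zorbax Extend-C18 column (2.1 × 50 mm, 1.8 μm) at 100 μL/min, with water and acetonitrile each containing 0.1% formic acid and dead and dwell volumes of 40 μL and 900 μL. Retention time was read from adduct peaks picked by computer and checked manually.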
`CCc1ccc(-c2noc(-c3nnn(Cc4nc(-c5ccccc5OC)oc4C)c3C)n2)cc1` gave an RP-LC retention time of 1270 s.
Take `O=C(Cn1ccc2sccc2c1=O)Nc1ccc(Cl)cc1`: the RP-LC retention time amounted to 776 s.
For `O=C(NCCc1cccs1)c1nc(Nc2ccc(F)cc2)c2ccccc2n1`, the RP-LC retention time is 825 s.
The value for `CC(C)c1ccc(Nc2nc3ccncc3n(Cc3ccccc3)c2=O)cc1` was 886 s.
In the case of `COc1ccc(CCS(=O)(=O)NCC2CCN(C(=O)Oc3ccccc3)CC2)cc1` it was 888 s.
In turn, `CCn1ccc(C(=O)Nc2ccccc2C#N)n1` came in with an RP-LC retention time of 744 s.
`CCCCCn1c(=O)c2ccccc2n(Cc2nc(-c3ccccc3)no2)c1=O` gave an RP-LC retention time of 1240 s.
The value for `O=C(NC1CC1)C1CCN(c2ncccc2-c2nc(-c3ccc(Cl)cc3)no2)CC1` was 970 s; that for `CCc1nn2c(CNC(=O)c3ccc(C(C)C)cc3)c(-c3ccccc3)nc2s1` was 1080 s; that for `CCN(CC)S(=O)(=O)c1ccc2c(c1)CC(C(=O)NCCC(C)C)N2C(C)=O` (centres undefined) was 848 s.
Turning to `O=C1CC(c2noc(-c3ccc(F)cc3)n2)CN1c1ccc(Cl)cc1` (centres undefined), the RP-LC retention time was 1070 s.
In the case of `O=c1cc(CO)oc(C(Nc2ccccn2)c2cccc(F)c2)c1O` (centres undefined), the RP-LC retention time came to 542 s.
`O=C(Nc1cc(-c2ccccn2)no1)C1CC1` registered an RP-LC retention time of 668 s.
The compound `CC(C)n1cnc(S(=O)(=O)N2CCC(C(=O)NCCC3=CCCCC3)CC2)c1` came in with an RP-LC retention time of 804 s.
As for `CC(C)OCCCNC(=O)CCC(=O)N1CC2CCCN2c2ccccc21` (centres undefined), the RP-LC retention time amounted to 822 s.
With `Clc1ccc(OCCSc2nnc(-c3ccc4c(c3)OCO4)o2)cc1`, the RP-LC retention time was determined as 1130 s.
In the case of `CCN1CCn2cc(S(=O)(=O)NCc3ccc(C)c(C)c3)cc2C1=O` it was 761 s; in that of `O=C(NC1CCCCCC1)C1CCCN(C(=O)Cc2cccc3ccccc23)C1` (centres undefined), 983 s.
As for `COC(=O)C1=C(CN2CCOCC2)NC(=O)NC1c1ccccc1C` (centres undefined), the RP-LC retention time was 590 s.
With `CC(=O)Nc1ccc(Cc2nc(-c3ccc4c(c3)oc(=O)n4C)no2)cc1`, the RP-LC retention time was determined as 729 s.
The value for `O=C(Cn1c(=O)n(-c2ccc(F)cc2)c2ncccc21)N1CCCCC1` was 754 s; that for `O=C(C1=CN(c2ccc3c(c2)OCCO3)c2cc(Cl)ccc2S1(=O)=O)N1CCCCC1` was 873 s.
As for `CCOC(=O)CCC(=O)Nc1nnc2n1CCS2`, the RP-LC retention time stood at 558 s.
`Cc1nc(C2CN(S(=O)(=O)c3ccccc3F)CC23CCOCC3)no1` (centres undefined): the RP-LC retention time is 812 s.
Consider `COCCNC(=O)c1csc(N2CCN(c3ccc(OC)cc3)CC2)n1`, for which the RP-LC retention time was found to be 767 s.
Turning to `Cc1sc2ccn(CC(C)C)c(=O)c2c1C(=O)NCc1ccccc1F`, the RP-LC retention time came out at 994 s.
Regarding `O=C(CN1CCN(Cc2ccc(F)cc2)C1=O)NCC1CCCCC1`, the RP-LC retention time turned out to be 854 s.
For `Cn1cc(C(=O)Nc2ccc3c(c2)OCO3)c2cccnc21`, the RP-LC retention time is 730 s.
Take `N#CC1=C(SCC(=O)NCc2ccccc2)NC(=O)CC1c1ccco1` (centres undefined): the RP-LC retention time stood at 770 s.
The compound `CCCN1C(=O)COc2cc(-c3noc(C(=O)NCC(C)c4ccccc4)n3)ccc21` (centres undefined) gave an RP-LC retention time of 793 s.
As for `COCCCNCc1ccc(-c2ccccc2Cl)o1`, the RP-LC retention time came out at 672 s.
In the case of `CC(C)CN1CCN(C(=O)c2ccc(-c3ccnc(N4CCCC4)n3)cc2)CC1` it was 587 s; in that of `Cc1ccc(C(=O)N2CCc3cc(-c4ccno4)ccc32)cc1`, 974 s; in that of `CC1(C)CC(=O)c2cn(-c3ccc(F)cc3)c(=O)c(C(=O)N3CCc4ccccc43)c2C1`, 954 s.
